Reference: US12275995B2, “Lysinibacillus sphaericus and aspirin chemoprevention of colorectal cancer” (priority 2019, dated 2025)

System: Lysinibacillus sphaericus
Assay: In vitro incubation of L. sphaericus with antibiotics (cell growth)
Assay type: cell-based
Details: in vitro incubation with single antibiotics of the cocktail

CC1(C)S[C@@H]2[C@H](NC(=O)[C@H](N)c3ccccc3)C(=O)N2[C@H]1C(=O)O [ampicillin]
growth of L. sphaericus: inhibiting the growth
